Assay results taken from patent publication US4954156A, “N,N-dihalo-2-imidazolidinones and N-halo-2-oxazolidinones as urease and nitrification inhibitors” (Tennessee Valley Authority, priority 1989, dated 1990).
Several values for one entry are separate records, joined by “and”; a condition that tells them apart may be missing. Equal values may be shown once.

Tests used:
[1] = target: purified Jack Bean urease (Canavalia ensiformis, UniProt P07374); assay: Aqueous system (pH stat) urease inhibition test; type: biochemical; details: 25° C
Procedure: (§1) Embodiment 1: Urease activity of inhibitor test compounds may be evaluated either in aqueous or in soil systems. When aqueous systems are used, urea plus a test compound with possible urease inhibition activity and relatively pure urease enzyme are incubated together to determine the effects of the test compound on urease-catalyzed hydrolysis of urea. When soil systems are used, urea and the test compound are added to moist soil, and the urease enzyme is supplied from the soil. The main disadvantage of using soil systems is that the true activity of test compounds may be masked because of reactions between the test compound and soil. Thus, basic studies for understanding chemical structure-activity relationships are usually done in aqueous systems.
Aqueous System (pH Stat) Test Procedure: The aqueous system urease inhibition tests were conducted at 25° C using purified Jack Bean urease enzyme, 50,000-80,000 units per gram, a unit of urease will liberate 1 umole of NH3 from urea per minute at pH 7.0 at 25° C.
An appropriate amount of inhibitor [such as 37.0 uL (microliters) of a 1.169×10^(-3) M (moles/liter) inhibitor solution] and 100 uL of a solution of 13.9130 mg Jack Bean urease enzyme in 10.00 mL of water were diluted to 25.00 mL. This combined solution was allowed to sit undisturbed at 23° C. for twenty (20) minutes. Then 20.0 uL of a preservative solution was added to prevent degradation of the urease enzyme during the course of the experiment. The preservative solution contained 5.655×10^-4 moles/liter ethylenediaminetetraacetic acid (disodium salt) and 1.166×10^-3) moles/liter dithiothreitol.
Immediately after the addition of the preservative solution to the inhibitor/urease solution, 800 uL of a 0.1246 M urea solution was added and a computer assisted titrimeter was started. This titrimeter maintained a constant pH of 6.97 during the course of the experiment by neutralizing the ammonia (resulting from urease hydrolysis of urea) with 0.01142 M hydrochloric acid (HCl). The volume (measured to 0.001 mL) of HCl added was automatically recorded every 15 seconds for up to 20.0 minutes or until a total volume of 2.500 mL of HCl was added.
Experiments also were conducted without inhibitor (blank) and with the inhibitor PPDA for comparison. The experiments were replicated, and the percent inhibition for each of the inhibitors at the various concentrations was calculated as follows:
% inhibition=(kinhibitor /kblank)×100 (4)
where kinhibitor and kblank are the average rates of HCl addition for the inhibitor and blank experiments, respectively. The rates of HCl addition were calculated by linear regression of the titration curves.

[2] = system: nitrification of ammonium nitrogen in soil; assay: Soil nitrification inhibition test (Mountainview silt loam, banded); details: for % inhibition (nitrification) / Net mg NO2N / Net mg NO3N: 25° C, 410 mg urea + 41 mg inhibitor; for Nitrite accumulation in the soil: during the 5 weeks incubation, greater than with dicyandiamide
Procedure: Embodiment 2: The N-Halamine compounds were tested for nitrification inhibition using the soil testing procedure described below.
Mountainview silt loam soil was screened through a 2 mm sieve. Plexiglas containers (8×8×6 cm) were packed half full with the soil and packed to a bulk density of 1.0 g/cm^3 and wetted to field capacity (approximately 20 weight percent moisture). The urea 410 mg per container) and inhibitor (41 mg per container) were added in a narrow band (0.5 cm wide X 6 cm long), and additional soil was added to fill the containers. The total amount of dry soil added was 384 g. The containers were incubated at 25° C. During incubation the containers were checked periodically for moisture loss and additional water added as needed to maintain moisture levels.
The individual containers were removed from the incubator at 1, 2, 3, 4, and 5 week intervals. After removal from the incubator the contents of the container were transferred to a plastic bag and thoroughly mixed. A 10-g sample of soil (dry basis) was taken from the bag and extracted with 100 ml of 2 N KCL. The extract was filtered through Whatman #41 filter paper and refrigerated until analyzed. Samples were analyzed for NO3-N- NO2-N- and urea-N using a colorimetric procedure. Some samples also were analyzed for NH4-N.
The percent nitrification inhibition was calculated according to the method of Bundy and Bremner [G. L. Bundy and J. M. Bremner, Soil Sci. Soc. Am. Proc. 37, 396-398 (1973)]
% nitrification inhibition=[(C-S)/C]×100
where C=net amount of NO3-N produced in the control (no inhibitor added), and S=net amount of NO3-N produced in the inhibitor treated sample.
^a Concentrations are in net mg/container. All containers had 384 g
soil (dry), 410 mg urea (188.6 mg N) and 41 mg inhibitor. Samples were
extracted 10 g → 100 mls 2N KCl. The formulas used for calculation
where C = net NO3N produced in control (no inhibitor), S = net
NO3N produced in inhibitor treated sample, net NO3N =
(NO3N) - (soil NO3N), and net NO2N = (NO2N) - (soil
NO2N). Values are averages of two replicate samples.

[3] = system: soil urease (urease-active Hastings silt loam soil); assay: Banded soil system urease inhibition test (Hastings silt loam); details: 410 mg urea + 41 mg inhibitor
Procedure: as §1
Soil System Test Procedure: The soil system test procedure used was a modification of the previous procedures of other researchers L. A. Douglas and J. M. Bremner, Soil Biol. Biochem. 3, 309-315 (1971) and J. M. Bremner and R. L. Mulvaney, "Urease Activity in Soils," Soil Enzymes 5, R. G. Burns, editor, Academic Press, 149-195 (1978)]. In this modified procedure powdered mixtures of urea and test compounds were applied in narrow bands in the soil rather than being mixed throughout the soil. The banded configuration also results in concentration gradients of urea, urea hydrolysis products, test compounds, and test compound decomposition products similar to those in the immediate vicinity of urea granules containing the test compounds. Another advantage of the banded configuration compared with mixing throughout the soil is that slightly soluble test compounds can be easily band applied, whereas it is difficult to achieve a known degree of mixing of a small quantity of slightly soluble test compound with soil. The banded configuration also enables testing for urease inhibition under realistic soil conditions prior to the development of techniques for cogranulating a wide range of test compounds with urea.
A detailed description of the banded soil testing procedure follows. Urease-active soil (Hastings silt loam) was moistened to a moisture content of 20 percent dry weight basis) and preincubated at room temperature for two days. Plexiglas containers (6×6×6 cm) were half filled with soil and packed to a bulk density of 1.0 g/cm . Urea (410 mg) or urea (410 mg) plus inhibitor (41 mg, thoroughly mixed with the urea) was distributed in a narrow band about 0.5 cm wide and 6 cm long on the soil surface. The containers then were filled with soil, again packing to a bulk density of 1.0 g/cm^3. The containers were incubated at 25° C. for the desired reaction period, after which the containers were frozen to about -5° C. to stop urea hydrolysis. Immediately prior to extracting the remaining urea from the soil, said soil was allowed to thaw. Soil from each container was thoroughly mixed, and a 10-g sample was extracted with 100 ml of 2 M KCl containing phenylmercuric acetate to prevent urea hydrolysis during handling [L. A. Douglas and J. M. Bremner, Soil. Sci. Soc. Am. Proc. 34, 859-862 (1970)]. Urea in the extracts was determined colorimetrically as a measure of unhydrolyzed urea and the results expressed as percent unhydrolyzed urea-N.
^a The plexiglas containers measured 6 × 6 × 6 cm.
Hastings silt loam soil was utilized and packed to a bulk density of 1
gm/cm^3 dry basis. The soil was wet to near field capacity (20%
moisture) and 260 g of wetted soil (216 g dry soil) was added per
container. The containers were packed half full, urea and inhibitor were
added, and the remaining soil was added. The amount of urea added = 410 m

Chain of purified Jack Bean urease (P07374 whole entry, looked up): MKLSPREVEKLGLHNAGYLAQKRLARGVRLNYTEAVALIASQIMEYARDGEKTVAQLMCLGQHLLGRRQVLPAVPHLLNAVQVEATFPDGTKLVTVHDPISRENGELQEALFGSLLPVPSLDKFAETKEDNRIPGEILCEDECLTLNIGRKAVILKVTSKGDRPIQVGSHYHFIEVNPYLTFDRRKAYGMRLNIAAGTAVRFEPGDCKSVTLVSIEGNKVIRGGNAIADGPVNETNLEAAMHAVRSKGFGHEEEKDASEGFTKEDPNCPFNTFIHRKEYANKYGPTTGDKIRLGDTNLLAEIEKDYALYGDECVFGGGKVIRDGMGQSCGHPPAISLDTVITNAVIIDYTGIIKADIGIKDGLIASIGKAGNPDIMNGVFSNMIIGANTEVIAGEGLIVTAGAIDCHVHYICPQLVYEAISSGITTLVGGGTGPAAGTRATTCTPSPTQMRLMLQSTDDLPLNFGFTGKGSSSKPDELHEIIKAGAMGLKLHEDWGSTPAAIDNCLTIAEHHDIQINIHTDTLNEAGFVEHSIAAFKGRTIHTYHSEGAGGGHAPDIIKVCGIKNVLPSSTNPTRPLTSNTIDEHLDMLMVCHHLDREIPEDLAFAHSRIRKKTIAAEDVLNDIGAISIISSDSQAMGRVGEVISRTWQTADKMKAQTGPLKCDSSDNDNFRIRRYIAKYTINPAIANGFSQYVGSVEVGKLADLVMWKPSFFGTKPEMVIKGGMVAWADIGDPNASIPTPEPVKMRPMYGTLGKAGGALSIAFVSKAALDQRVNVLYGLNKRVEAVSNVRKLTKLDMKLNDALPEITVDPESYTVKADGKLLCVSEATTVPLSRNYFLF

| Compound | % unhydrolyzed urea-N ([3]; 3 days incubation at 25° C) | PPM urea-N ([3]; 3 days incubation at 25° C) | % unhydrolyzed urea-N ([3]; 6 days incubation at 25° C) | PPM urea-N ([3]; 6 days incubation at 25° C) | % inhibition (nitrification) ([2]; 1 week) | Net mg NO2N ([2]; 1 week) | Net mg NO3N ([2]; 1 week) | % inhibition (nitrification) ([2]; 2 weeks) | Net mg NO2N ([2]; 2 weeks) | Net mg NO3N ([2]; 2 weeks) | % inhibition (nitrification) ([2]; 3 weeks) | Net mg NO2N ([2]; 3 weeks) | Net mg NO3N ([2]; 3 weeks) | % inhibition (nitrification) ([2]; 4 weeks) | Net mg NO2N ([2]; 4 weeks) | Net mg NO3N ([2]; 4 weeks) | % inhibition (nitrification) ([2]; 5 weeks) | Net mg NO2N ([2]; 5 weeks) | Net mg NO3N ([2]; 5 weeks) | Nitrite accumulation in the soil [2] | also measured |
| --- | --- | --- | --- | --- | --- | --- | --- | --- | --- | --- | --- | --- | --- | --- | --- | --- | --- | --- | --- | --- | --- |
| CC1(C)N(Cl)C(=O)N(Cl)C1(C)C [A, 1,3-dichloro-4,4,5,5-tetramethyl-2-imidazolidinone] | – | – | – | – | – | – | – | – | – | – | – | – | – | – | – | – | – | – | – | – | % urease inhibition ([1]; inhibitor 1.440 x 10^-8 moles/experiment): 86%; % urease inhibition ([1]; inhibitor 2.160 x 10^-8 moles/experiment): 95%; % urease inhibition ([1]; inhibitor 4.320 x 10^-8 moles/experiment): 100%; percent nitrification inhibition ([2]; separate experiment (Examples VII, IX): sampled only at end of 5-week incubation, no dicyandiamide comparison): 41.8% |
| CC1(C)N(Br)C(=O)N(Br)C1(C)C [AB, 1,3-dibromo-4,4,5,5-tetramethyl-2-imidazolidinone] | 70.59% and 70.6% | 62.5 PPM | 15.02% and 15.0% | 13.3 PPM | 100.0% | -0.05 mg/container | 0.0 mg/container | 100.0% | 0.04 mg/container | 0.0 mg/container | 100.0% | 0.03 mg/container | 0.0 mg/container | 100.0% | 0.82 mg/container | 0.0 mg/container | 98.3% | 2.63 mg/container | 3.1 mg/container | well within plant tolerance levels | – |
| N#CN=C(N)N [Dicyandiamide, dicyandiamide, reference compound] | – | – | – | – | 78.2% | 0.17 mg/container | 4.6 mg/container | 88.6% | 0.19 mg/container | 17.7 mg/container | 87.4% | 0.01 mg/container | 22.7 mg/container | 87.4% | 0.01 mg/container | 22.7 mg/container | 90.0% | -0.02 mg/container | 18.4 mg/container | – | % inhibition (nitrification) ([2]; 5 weeks, listed as dicyandiamide): 90% |
| CC1(C)COC(=O)N1Cl [I, 3-chloro-4,4-dimethyl-2-oxazolidinone] | 82.45% and 82.4% | 73.0 PPM | 56.47% and 56.5% | 50.0 PPM | 74.4% | 0.28 mg/container | 5.4 mg/container | 68.9% | 0.49 mg/container | 48.4 mg/container | 4.9% | 0.07 mg/container | 171.3 mg/container | -2.8% | 0.02 mg/container | 185.5 mg/container | -1.5% | -0.01 mg/container | 187.4 mg/container | – | % inhibition (nitrification) ([2]; 5 weeks, listed as 3-chloro-4,4-dimethyl-2-oxazolidinone): 0%; nitrification inhibition effect ([2]; after three weeks): almost completely exhausted |
| CC1(C)COC(=O)N1Br [IB, 3-bromo-4,4-dimethyl-2-oxazolidinone] | 65.51% and 65.5% | 58.0 PPM | 10.05% and 10.0% | 8.9 PPM | 100.0% | -0.02 mg/container | 0.0 mg/container | 100.0% | 0.06 mg/container | 0.0 mg/container | 100.0% | 0.12 mg/container | 0.0 mg/container | 100.0% | 0.52 mg/container | 0.0 mg/container | 99.6% | 2.64 mg/container | 0.8 mg/container | well within plant tolerance levels | % inhibition (nitrification) ([2]; 1 week, listed as 3-bromo-4,4-dimethyl-2-oxazolidinone): 100% |
| NP(N)(=O)Oc1ccccc1 [PPDA, Phenyl phosphorodiamidate, reference compound] | 94.31% and 94.3% | 83.5 PPM | 58.73% and 58.7% | 52 PPM | – | – | – | – | – | – | – | – | – | – | – | – | – | – | – | – | % urease inhibition ([1]; inhibitor 0.108 x 10^-8 moles/experiment): 99%; % urease inhibition ([1]; inhibitor 0.216 x 10^-8 moles/experiment): 100% |
